Laboratory results reported in article PMC7290078, “Agonist bias and agonist‐dependent antagonism at corticotrophin releasing factor receptors” (Pharmacology Research & Perspectives, 2020).
No end group written: not given here.

Assays:
CRF1 receptor (hCRF1α) = target: T1, CRF1 receptor (hCRF1α) (Homo sapiens, UniProt P34998); test: Antagonism of agonist-mediated IP1 accumulation in Cos7 cells expressing CRF1 receptors; assay type: cell-based; conditions: for effect on agonist efficacy β: could not be determined, assumed; for allosteric effect α: operational model of allosterism; for antagonist potency (pKB): Gaddum method for insurmountable antagonism, mean ± SEM, n = 5
T1 construct: host or cells: Cos7 cells, transient transfection (PEI), pcDNA3.0/3.1 vector
T1 sequence (P34998 24-415): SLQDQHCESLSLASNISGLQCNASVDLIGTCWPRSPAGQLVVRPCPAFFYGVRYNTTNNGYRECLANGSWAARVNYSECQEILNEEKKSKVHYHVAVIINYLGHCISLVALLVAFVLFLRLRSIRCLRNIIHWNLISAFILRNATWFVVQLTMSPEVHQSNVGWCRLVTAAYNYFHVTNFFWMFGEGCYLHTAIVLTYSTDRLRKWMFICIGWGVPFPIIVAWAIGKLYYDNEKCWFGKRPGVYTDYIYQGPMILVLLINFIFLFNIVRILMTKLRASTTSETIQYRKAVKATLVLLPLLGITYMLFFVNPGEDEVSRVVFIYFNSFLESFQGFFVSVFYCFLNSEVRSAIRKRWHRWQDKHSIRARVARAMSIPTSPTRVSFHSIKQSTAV
Text: (§1) Plasmids containing hCRF1α and hCRF2α (GenBank accession numbers AY457172 and AY449734) were obtained from the cDNA Resource Centre (Bloomsburg University) and are referred to as CRF1 and CRF2 in this manuscript. Hemagglutinin (HA) epitope‐tagged human Calcitonin (CT) receptor (CT(a) splice variant) and myc‐tagged human RAMP1 were used as described previously. ^27 HA‐tagged human calcitonin receptor‐like receptor (CLR), N‐terminal FLAG‐tagged human RAMP3 and N‐terminal myc‐tagged human RAMP3 were a gift from Professor David Poyner (Aston University) and Professor Patrick Sexton (Monash University), respectively. N‐terminal FLAG‐tagged human RAMP2 was used as described previously. ^28 All receptors and RAMPs were cloned in pcDNA3.0 or pcDNA3.1 plasmid vectors. All plasmid inserts were sequenced at the Centre for Genomics, Proteomics and Metabolomics (University of Auckland) and the sequences were verified prior to use.
Cos7, HEK‐293S, and HEK‐293T cells were cultured as described previously. ^28 , ^29 Cos7 cells were originally supplied by the ATCC to Associate Professor Nigel Birch (University of Auckland). HEK‐293S cells were a gift from Professor David Poyner (Aston University) and HEK‐293T cells a gift from Professor John Taylor (University of Auckland). Briefly, all cell lines were cultured in Dulbecco's Modified Eagle Medium (DMEM) supplemented with 8% heat inactivated fetal bovine serum (FBS) and maintained in a humidified incubator at 37°C with 5% CO2. For transfection, cells were counted (Countess CounterTM; Life Technologies) and plated at a density of 20 000 cells per well in 96‐well plates. The cells were transiently transfected 48 hours prior to assaying using polyethylenimine (PEI), as described previously. ^28 , ^29 In all experiments a total of 0.25 μg DNA was transfected per well. In the majority of experiments 0.25 μg DNA of receptor‐containing plasmid or the pcDNA3.1 plasmid without an insert was used. For experiments involving RAMPs, 0.125 μg of receptor DNA and 0.125 μg of RAMP‐containing plasmid DNA were transfected to give a 1:1 ratio of receptor to RAMP. Where the RAMP or receptor were transfected alone, the ratio of DNA was made up with the pcDNA3.1 plasmid.
The IP‐one Gq assay kit (Cisbio) was used to quantify accumulated myo‐inositol‐1‐phosphate (IP1), a by‐product of IP3 produced after receptor‐mediated Gαq activation in Cos7 and HEK‐293S cells. Briefly, culture media was removed and replaced with DMEM containing 0.1% BSA for 30 minutes at 37°C. Cells were then incubated with media containing 50 mmol/L lithium chloride (LiCl) for an additional 0‐120 minutes (time courses) or 90 minutes at 37°C in the presence or absence of an antagonist. Agonist concentrations of 1 pmol/L to 10 µmol/L were used for agonist only assays or 10 pmol/L to 10 µmol/L concentrations for antagonist experiments. After cell stimulation, 14 µL of stimulation buffer was added to each well. Three microlitres of each detection antibody were added in turn to the plate and incubated at room temperature for 1 hour. Fifteen microliters of sample was then transferred to a 384‐well optiplate and read by an Envision plate reader (PerkinElmer). IP1 concentrations were calculated from a standard curve generated in duplicate.
In all experiments the position of peptides and antagonists (pharmacology) or transfected receptors (ELISAs) on assay plates was randomized during each independent experiment, which are independent biological replicates. In all cases, duplicate, triplicate, or quadruplicate technical replicates were conducted for each independent experiment. For transfected cell experiments, each independent experiment involved plating cells from a distinct passage, separate transient transfection and separate signaling or ELISA assays, constituting experimental n. […]

CRF2 receptor (hCRF2α) = target: T2, CRF2 receptor (hCRF2α) (Homo sapiens, UniProt Q13324); test: Antagonism of agonist-mediated IP1 accumulation in Cos7 cells expressing CRF2 receptors; assay type: cell-based
T2 construct: host or cells: Cos7 cells, transient transfection (PEI), pcDNA3.0/3.1 vector
T2 sequence (Q13324 1-411): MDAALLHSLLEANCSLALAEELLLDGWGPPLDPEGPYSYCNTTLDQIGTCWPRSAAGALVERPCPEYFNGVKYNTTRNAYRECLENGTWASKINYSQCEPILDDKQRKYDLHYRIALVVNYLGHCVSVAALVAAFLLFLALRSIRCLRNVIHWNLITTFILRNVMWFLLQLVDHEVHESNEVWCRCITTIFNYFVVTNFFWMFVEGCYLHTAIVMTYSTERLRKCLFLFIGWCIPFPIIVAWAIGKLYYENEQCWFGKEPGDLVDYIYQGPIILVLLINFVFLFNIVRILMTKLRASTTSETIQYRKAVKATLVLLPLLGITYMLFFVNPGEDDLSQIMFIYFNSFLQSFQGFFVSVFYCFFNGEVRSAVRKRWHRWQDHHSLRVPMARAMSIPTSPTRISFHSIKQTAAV
Text: as §1
Cos7, HEK‐293S, and HEK‐293T cells were cultured as described previously. ^28 , ^29 Cos7 cells were originally supplied by the ATCC to Associate Professor Nigel Birch (University of Auckland). HEK‐293S cells were a gift from Professor David Poyner (Aston University) and HEK‐293T cells a gift from Professor John Taylor (University of Auckland). Briefly, all cell lines were cultured in Dulbecco's Modified Eagle Medium (DMEM) supplemented with 8% heat inactivated fetal bovine serum (FBS) and maintained in a humidified incubator at 37°C with 5% CO2. For transfection, cells were counted (Countess CounterTM; Life Technologies) and plated at a density of 20 000 cells per well in 96‐well plates. […]
(§2) The IP‐one Gq assay kit (Cisbio) was used to quantify accumulated myo‐inositol‐1‐phosphate (IP1), a by‐product of IP3 produced after receptor‐mediated Gαq activation in Cos7 and HEK‐293S cells. […] Fifteen microliters of sample was then transferred to a 384‐well optiplate and read by an Envision plate reader (PerkinElmer). IP1 concentrations were calculated from a standard curve generated in duplicate. […]

calcitonin receptor = test: Antagonism of calcitonin-mediated IP1 accumulation in Cos7 cells expressing the human calcitonin receptor; assay type: cell-based; conditions: 100 µmol/L; n = 3
Text: as §1, with “N‐terminal FLAG‐tagged human RAMP2 was used as described previously. ^28 All receptors and RAMPs were cloned in pcDNA3.0 or pcDNA3.1 plasmid vectors. All plasmid inserts were sequenced at the Centre for Genomics, Proteomics and Metabolomics (University of Auckland) and the sequences were verified prior to use.” left out
Cos7, HEK‐293S, and HEK‐293T cells were cultured as described previously. ^28 , ^29 Cos7 cells were originally supplied by the ATCC to Associate Professor Nigel Birch (University of Auckland). […] For transfection, cells were counted (Countess CounterTM; Life Technologies) and plated at a density of 20 000 cells per well in 96‐well plates. […]
as §2

CRF2 receptor = system: CRF2 receptor; parameters: method as in PMID 11123370, PMID 12615952; conditions: cited from earlier work

| Compound | potency against CRF‐mediated relative to UCN1‐mediated IP1 accumulation (CRF1 receptor (hCRF1α); CRF1 receptor) | mode of antagonism (CRF1 receptor (hCRF1α); IP1 accumulation) | effect on agonist efficacy β (CRF1 receptor (hCRF1α); agonist CRF, IP1, CRF1) | allosteric effect α (CRF1 receptor (hCRF1α); agonist CRF, IP1, CRF1) | antagonist potency (pKB) (CRF1 receptor (hCRF1α); agonist CRF, IP1, hCRF1α) | effect on agonist efficacy β (CRF1 receptor (hCRF1α); agonist UCN1, IP1, CRF1) | allosteric effect α (CRF1 receptor (hCRF1α); agonist UCN1, IP1, CRF1) | antagonist potency (pKB) (CRF1 receptor (hCRF1α); agonist UCN1, IP1, hCRF1α) | effect on agonist E max (CRF1 receptor (hCRF1α); antagonism of CRF and UCN1‐mediated IP1, CRF1 receptor, F tests) | effect on CRF‐mediated IP1 accumulation (CRF2 receptor (hCRF2α); 100 µmol/L, CRF2 receptor) | effect on agonist E max (CRF2 receptor (hCRF2α); IP1, CRF2 receptor, F tests) | antagonist potency (pKB) (CRF2 receptor (hCRF2α); agonist UCN1, IP1, hCRF2α, Gaddum method for insurmountable antagonism, mean ± SEM, n = 6) | effect on IP1 accumulation at the calcitonin receptor (calcitonin receptor) | binding affinity in words (CRF2 receptor) |
| --- | --- | --- | --- | --- | --- | --- | --- | --- | --- | --- | --- | --- | --- | --- |
| CCC(CC)Nc1cc(C)nc(Oc2c(C)cc(C)cc2C)c1C [CP‐376,395] | approximately 8 fold | non‐competitive antagonist of IP1 accumulation | ~ 0 | 0.03 | 7.55 ± 0.10 | ~ 0 | 0.15 | 6.67 ± 0.08 | a reduction in E max | appeared to be abolished | a reduction in E max | 3.40 ± 0.29 | no effect on IP1 accumulation at the calcitonin receptor |  |
| IVLSLDVPIGLLQILLEQARARAAREQATTNARILARVGHC-NH2 (C-terminus assumed) [UCN2] |  |  |  |  |  |  |  |  |  |  |  |  |  | high affinity |
